Reference: publication PMC9571063 (Molecules, 2022)
Like-named read-outs stand apart in the source and are kept apart here.

Experiments:
[1] = cytotoxic assay, nuclei count (Hoechst, HCS); type: cell-based; conditions: human, MDA-MB-231 cells (breast carcinoma); 48 h treatment; read-out: Cytotoxic studies IC50 MDA-MB-231
[2] = target: T1, Rn_DYRK1A (Rattus norvegicus, UniProt Q63470); assay: ADP-Glo kinase assay, primary screen; type: biochemical; conditions: n=2, read-out: % of residual activity Rn_DYRK1A
T1 construct: host or cells: bacteria

[3] = target: T2, Hs_HASPIN (Homo sapiens, UniProt Q8TF76); assay: ADP-Glo kinase assay, primary screen; type: biochemical; conditions: n=2, read-out: % of residual activity Hs_HASPIN
T2 construct: host or cells: bacteria
T2 sequence (Q8TF76 1-798): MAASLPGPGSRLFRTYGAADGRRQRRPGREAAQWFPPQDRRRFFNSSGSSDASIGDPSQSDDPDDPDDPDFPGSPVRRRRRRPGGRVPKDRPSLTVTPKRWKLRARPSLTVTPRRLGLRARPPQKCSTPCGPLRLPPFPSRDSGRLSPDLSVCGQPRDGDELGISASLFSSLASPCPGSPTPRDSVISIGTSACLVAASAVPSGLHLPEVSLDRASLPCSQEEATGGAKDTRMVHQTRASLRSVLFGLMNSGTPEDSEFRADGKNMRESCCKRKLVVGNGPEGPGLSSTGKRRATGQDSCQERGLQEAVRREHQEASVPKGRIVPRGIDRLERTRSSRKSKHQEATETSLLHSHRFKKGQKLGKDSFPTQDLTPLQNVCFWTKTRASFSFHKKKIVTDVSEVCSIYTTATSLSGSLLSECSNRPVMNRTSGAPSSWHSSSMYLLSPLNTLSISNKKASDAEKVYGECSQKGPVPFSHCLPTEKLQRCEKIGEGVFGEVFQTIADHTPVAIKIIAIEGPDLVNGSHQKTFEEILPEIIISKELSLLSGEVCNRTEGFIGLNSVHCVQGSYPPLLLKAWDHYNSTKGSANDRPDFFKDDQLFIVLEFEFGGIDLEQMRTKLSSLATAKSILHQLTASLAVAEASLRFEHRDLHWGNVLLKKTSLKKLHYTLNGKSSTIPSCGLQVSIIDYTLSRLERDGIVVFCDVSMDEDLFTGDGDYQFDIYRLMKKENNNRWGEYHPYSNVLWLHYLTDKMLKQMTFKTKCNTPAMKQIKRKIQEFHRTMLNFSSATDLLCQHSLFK

[4] = target: T3, HsDYRK1A (Homo sapiens, UniProt Q13627); assay: ADP-Glo kinase assay; type: biochemical; conditions: n=2, read-out: % of residual activity Hs_DYRK1A
T3 construct: host or cells: Sf9 insect cells (baculovirus)

[5] = cytotoxic assay, nuclei count (Hoechst, HCS); type: cell-based; conditions: human, 48 h treatment
Protocol: (§1) To complete our study, we performed a cytotoxicity screening of the 15 molecules, investigating 7 representative cancer cell lines. The compound’s effect on cell viability was evaluated on Huh-7 (hepatocellular carcinoma), CaCo2, HCT-116 (colorectal adenocarcinoma), MCF7, MDA-MB231, MDA-MB468 (breast carcinoma), PC3 (prostate carcinoma) and NCI-H727 (lung carcinoid). Human skin fibroblasts were used as reference for non-cancerous cells. Roscovitine, Doxorubicin and Taxol were used as positive controls. The cells were treated for 48 h with 25 µM compounds and fixed in cooled 90% ethanol/5% acetic acid for 20 min. The nuclei were stained with Hoechst 33342 and counted using HCS technology.
(§2) HuH7, CaCo-2, MDA-MB-231, HCT116, PC3, MCF7 and NCI-H727 cancer cell lines were obtained from the ECACC collection (Porton Down, UK). Cells were grown at 37 °C, 5% CO2 in ECACC recommended media: DMEM for HuH7, MDA-MB-231 and fibroblast, EMEM for MCF7and CaCo-2, McCoy’s for HCT116 and RPMI for PC3 and NCI-H727. All culture media were supplemented with 10% of FBS, 1% of penicillin-streptomycin and 2 mM glutamine.
(§3) Chemicals were solubilized in DMSO at a concentration of 10 mM (stock solution) and diluted in culture medium to the desired final concentrations.
[…] Cells were plated in 96 wells plates (4000 cells/well). Twenty-four hours after seeding, cells were exposed to chemicals. After 48 h of treatment, cells were washed in PBS and fixed in cooled 90% ethanol/5% acetic acid for 20 min and the nuclei were stained with Hoechst 33342 (B2261 Sigma). Image acquisition and analysis were performed using a CellomicsArrayScan VTI/HCS Reader (ThermoScientific, Waltham, MA, USA). The survival percentages were calculated as the percentage of cell number after compound treatment over cell number after DMSO treatment.

[6] = target: T4, Hs_PIM1 (Homo sapiens, UniProt P11309); assay: ADP-Glo kinase assay, primary screen; type: biochemical; conditions: n=2, read-out: % of residual activity Hs_PIM1
T4 construct: host or cells: Sf9 insect cells (baculovirus)
T4 sequence (P11309 whole entry): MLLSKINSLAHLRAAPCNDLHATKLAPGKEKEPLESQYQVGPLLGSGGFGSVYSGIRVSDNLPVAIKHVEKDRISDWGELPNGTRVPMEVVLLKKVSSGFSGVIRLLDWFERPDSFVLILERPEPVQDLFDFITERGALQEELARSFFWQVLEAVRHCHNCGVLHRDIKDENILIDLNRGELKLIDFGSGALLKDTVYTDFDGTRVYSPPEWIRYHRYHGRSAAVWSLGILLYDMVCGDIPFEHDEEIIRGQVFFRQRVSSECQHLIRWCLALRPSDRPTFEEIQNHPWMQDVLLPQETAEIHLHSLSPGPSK

[7] = target: T5, Hs_GSK3β (Homo sapiens, UniProt P49841); assay: ADP-Glo kinase assay, primary screen; type: biochemical; conditions: n=2, read-out: % of residual activity Hs_GSK3β
T5 construct: host or cells: Sf9 insect cells (baculovirus)
T5 sequence (P49841 whole entry): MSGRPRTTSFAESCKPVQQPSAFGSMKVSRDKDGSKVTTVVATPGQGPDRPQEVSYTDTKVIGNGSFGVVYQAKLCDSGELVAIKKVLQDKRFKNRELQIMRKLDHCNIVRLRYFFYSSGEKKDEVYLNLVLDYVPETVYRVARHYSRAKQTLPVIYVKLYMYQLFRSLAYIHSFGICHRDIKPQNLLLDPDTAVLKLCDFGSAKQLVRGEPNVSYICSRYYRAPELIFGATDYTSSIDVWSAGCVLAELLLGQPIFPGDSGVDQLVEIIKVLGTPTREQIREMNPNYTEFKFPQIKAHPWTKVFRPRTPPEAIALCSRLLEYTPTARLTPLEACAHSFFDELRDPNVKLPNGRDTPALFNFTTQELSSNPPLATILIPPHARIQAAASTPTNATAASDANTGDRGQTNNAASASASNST

[8] = target: T6, Hs_CDK5/p25 (Homo sapiens, UniProt Q00535); assay: ADP-Glo kinase assay, primary screen; type: biochemical; conditions: n=2, read-out: % of residual activity Hs_CDK5/p25
T6 construct: host or cells: bacteria
T6 sequence (Q00535 whole entry): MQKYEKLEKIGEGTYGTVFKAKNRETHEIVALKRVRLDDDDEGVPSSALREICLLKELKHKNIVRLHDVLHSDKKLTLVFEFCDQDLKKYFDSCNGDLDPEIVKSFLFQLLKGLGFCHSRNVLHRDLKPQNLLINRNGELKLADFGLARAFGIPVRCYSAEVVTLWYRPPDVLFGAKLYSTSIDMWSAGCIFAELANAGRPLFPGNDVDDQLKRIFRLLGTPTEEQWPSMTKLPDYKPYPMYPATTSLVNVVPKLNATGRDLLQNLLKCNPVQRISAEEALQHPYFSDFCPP
T6 sequence (Q15078 99-307 partner limits assumed): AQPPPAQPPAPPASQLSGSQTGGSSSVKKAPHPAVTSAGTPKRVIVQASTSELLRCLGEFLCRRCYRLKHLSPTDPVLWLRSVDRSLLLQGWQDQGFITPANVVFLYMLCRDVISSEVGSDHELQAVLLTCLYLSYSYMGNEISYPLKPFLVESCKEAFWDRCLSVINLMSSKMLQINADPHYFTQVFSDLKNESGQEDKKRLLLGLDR

[9] = cytotoxic assay, nuclei count (Hoechst, HCS); type: cell-based; conditions: human, MCF7 cells (breast carcinoma); 48 h treatment; read-out: Cytotoxic studies IC50 MCF7
Protocol: as §1, §2, §3
(§4) The cytotoxic assay of chemical was performed at 25 µM. Cells were plated in 96 wells plates (4000 cells/well). Twenty-four hours after seeding, cells were exposed to chemicals. After 48 h of treatment, cells were washed in PBS and fixed in cooled 90% ethanol/5% acetic acid for 20 min and the nuclei were stained with Hoechst 33342 (B2261 Sigma). Image acquisition and analysis were performed using a CellomicsArrayScan VTI/HCS Reader (ThermoScientific, Waltham, MA, USA). The survival percentages were calculated as the percentage of cell number after compound treatment over cell number after DMSO treatment.

[10] = target: T7, MmCLK1 (Mus musculus, UniProt P22518); assay: ADP-Glo kinase assay; type: biochemical; conditions: for remaining activity at 1 µM / remaining activity at 10 µM: n=2, read-out: % of residual activity Mm_CLK1
T7 construct: host or cells: bacteria
T7 sequence (P22518 whole entry): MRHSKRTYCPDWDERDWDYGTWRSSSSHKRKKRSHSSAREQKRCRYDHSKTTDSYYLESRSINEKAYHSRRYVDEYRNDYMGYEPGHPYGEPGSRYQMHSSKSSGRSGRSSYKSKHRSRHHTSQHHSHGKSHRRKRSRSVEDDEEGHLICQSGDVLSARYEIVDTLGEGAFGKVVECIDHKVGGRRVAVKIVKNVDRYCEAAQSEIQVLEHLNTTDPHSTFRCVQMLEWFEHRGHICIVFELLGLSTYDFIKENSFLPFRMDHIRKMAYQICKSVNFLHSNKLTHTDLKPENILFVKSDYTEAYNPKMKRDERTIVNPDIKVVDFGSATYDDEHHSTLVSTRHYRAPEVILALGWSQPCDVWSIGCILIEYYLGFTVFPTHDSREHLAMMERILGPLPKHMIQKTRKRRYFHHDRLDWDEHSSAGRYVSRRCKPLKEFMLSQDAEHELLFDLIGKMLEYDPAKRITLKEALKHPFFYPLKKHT

[11] = target: T8, Hs_CDK9/CyclinT (Homo sapiens, UniProt P50750); assay: ADP-Glo kinase assay, primary screen; type: biochemical; conditions: n=2, read-out: % of residual activity Hs_CDK9/CyclinT
T8 construct: host or cells: Sf9 insect cells (baculovirus)
T8 sequence (P50750 whole entry): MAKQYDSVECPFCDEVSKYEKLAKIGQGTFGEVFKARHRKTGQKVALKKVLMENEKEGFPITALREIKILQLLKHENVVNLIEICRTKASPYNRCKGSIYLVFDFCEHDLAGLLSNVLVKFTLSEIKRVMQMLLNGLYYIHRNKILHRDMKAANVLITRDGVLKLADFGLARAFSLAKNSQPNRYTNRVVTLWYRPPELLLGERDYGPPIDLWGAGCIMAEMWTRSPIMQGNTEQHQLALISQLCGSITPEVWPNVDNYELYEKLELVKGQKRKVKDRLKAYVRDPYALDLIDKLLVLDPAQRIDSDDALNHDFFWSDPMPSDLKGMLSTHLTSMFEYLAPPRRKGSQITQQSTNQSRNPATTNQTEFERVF
T8 sequence (O60563 whole entry partner): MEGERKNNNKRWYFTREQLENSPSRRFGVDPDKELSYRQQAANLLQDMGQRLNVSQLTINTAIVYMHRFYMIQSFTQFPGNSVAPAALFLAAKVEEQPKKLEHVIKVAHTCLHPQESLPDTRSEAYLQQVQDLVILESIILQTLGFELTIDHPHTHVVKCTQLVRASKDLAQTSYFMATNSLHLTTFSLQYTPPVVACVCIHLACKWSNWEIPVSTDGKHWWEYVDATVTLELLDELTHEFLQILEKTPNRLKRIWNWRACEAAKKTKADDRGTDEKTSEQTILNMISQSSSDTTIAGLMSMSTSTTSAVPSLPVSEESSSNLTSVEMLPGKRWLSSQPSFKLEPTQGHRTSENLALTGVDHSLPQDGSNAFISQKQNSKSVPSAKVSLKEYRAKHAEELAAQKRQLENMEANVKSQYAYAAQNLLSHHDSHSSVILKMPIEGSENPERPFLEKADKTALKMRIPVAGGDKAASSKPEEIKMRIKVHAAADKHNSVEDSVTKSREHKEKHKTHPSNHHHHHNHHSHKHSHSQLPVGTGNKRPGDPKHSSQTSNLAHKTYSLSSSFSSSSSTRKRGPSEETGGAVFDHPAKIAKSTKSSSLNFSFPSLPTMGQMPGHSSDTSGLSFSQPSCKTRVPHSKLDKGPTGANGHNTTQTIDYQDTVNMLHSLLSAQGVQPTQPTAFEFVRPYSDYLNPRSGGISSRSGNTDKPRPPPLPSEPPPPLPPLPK

[12] = cytotoxic assay, nuclei count (Hoechst, HCS); type: cell-based; conditions: human, HuH7 cells (hepatocellular carcinoma); 48 h treatment; read-out: Cytotoxic studies IC50 HuH7
[13] = cytotoxic assay, nuclei count (Hoechst, HCS); type: cell-based; conditions: human, Caco-2 cells (colorectal adenocarcinoma); 48 h treatment; read-out: Cytotoxic studies IC50 Caco2
[14] = cytotoxic assay, nuclei count (Hoechst, HCS); type: cell-based, human; conditions: human, human skin fibroblasts (non-cancerous reference cells); 48 h treatment; some cells add low/moderate/high amplitude; read-out: Cytotoxic studies IC50 Fibroblasts
Protocol: as §1, §2, §3, §4

[15] = tested on: Human skin fibroblasts; assay: cytotoxic assay, nuclei count (Hoechst, HCS); type: cell-based; conditions: summary of Table S2
Protocol: as §1, §2, §3, §4

[16] = target: T9, Hs_CK1ε (Homo sapiens, UniProt P49674); assay: ADP-Glo kinase assay, primary screen; type: biochemical; conditions: n=2, read-out: % of residual activity Hs_CK1ε
T9 construct: host or cells: Sf9 insect cells (baculovirus)
T9 sequence (P49674 whole entry): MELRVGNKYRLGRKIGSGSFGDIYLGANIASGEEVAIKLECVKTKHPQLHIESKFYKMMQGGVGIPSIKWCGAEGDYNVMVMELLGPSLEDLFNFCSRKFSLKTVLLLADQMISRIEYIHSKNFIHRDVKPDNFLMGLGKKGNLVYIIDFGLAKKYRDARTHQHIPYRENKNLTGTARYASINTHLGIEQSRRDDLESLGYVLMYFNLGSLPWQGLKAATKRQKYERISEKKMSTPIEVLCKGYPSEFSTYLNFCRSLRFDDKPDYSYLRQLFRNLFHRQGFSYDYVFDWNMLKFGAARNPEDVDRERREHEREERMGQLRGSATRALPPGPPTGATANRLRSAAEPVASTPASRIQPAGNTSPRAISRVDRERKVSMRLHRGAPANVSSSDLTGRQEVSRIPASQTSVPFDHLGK

[17] = HCT116 cells (colorectal adenocarcinoma), read-out: Cytotoxic studies IC50 HCT116
[18] = MDA-MB-468 cells (breast carcinoma), read-out: Cytotoxic studies IC50 MDA-MB-468

With O=[N+]([O-])c1cc(O)ccc1-n1cc(COc2cccc3cnc(Nc4cccc(Cl)c4)nc23)nn1 [12c, N-(3-Chlorophenyl)-8-((1-(4-hydroxy-2-nitrophenyl)-1H-1,2,3-triazol-4-yl)methoxy)quinazolin-2-amine] the IC50 at 48 h [1] was 19 µM, the remaining activity at 1 µM [2] was 81% and the remaining activity at 10 µM [2] was 45%. The remaining activity at 1 µM [3] was 83%, the remaining activity at 10 µM [3] was 88% and the remaining activity at 1 µM [4] was at least 100%. For the same molecule, the remaining activity at 10 µM [4] was 60%, the IC50 at 48 h [5, 17] was 1.3 µM and the IC50 at 48 h [5, 18] was 4 µM. For the same molecule, the remaining activity at 1 µM [6] was 59%, the remaining activity at 10 µM [6] was 68% and the remaining activity at 1 µM [7] was 89%. For the same molecule, the remaining activity at 10 µM [7] was 60%, the remaining activity at 1 µM [8] was 71% and the remaining activity at 10 µM [8] was 30%. It also gave an IC50 at 48 h [9] of 9 µM, a remaining activity at 1 µM [10] of 36% and a remaining activity at 10 µM [10] of 20%. The IC50 ([10]; mouse CLK1 orthologue, read-out: IC50 MmCLK1) was 0.177 µM, the remaining activity at 1 µM [11] was 58% and the remaining activity at 10 µM [11] was 39%. It also gave an IC50 at 48 h [12] of 5 µM, an IC50 at 48 h [13] of 24 µM and an IC50 at 48 h [14] of 6 µM. The “toxicity towards fibroblasts” value [15] was “moderate toxicity”, the remaining activity at 1 µM [16] was 94% and the remaining activity at 10 µM [16] was 81%.
For CC(C)(C)OC(=O)N[C@H]1CC[C@H](n2cc(COc3cccc4cnc(Nc5cc(Cl)cc(Cl)c5)nc34)nn2)CC1 [18b, tert-Butyl ((trans)-4-(4-(((2-((3,5-dichlorophenyl)amino)quinazolin-8-yl)oxy)methyl)-1H-1,2,3-triazol-1-yl)cyclohexyl)carbamate], the IC50 at 48 h [1] was over 25 µM, the remaining activity at 1 µM [2] was at least 100% and the remaining activity at 10 µM [2] was at least 100%. The remaining activity at 1 µM [3] was 72%, the remaining activity at 10 µM [3] was 53% and the remaining activity at 1 µM [4] was at least 100%. For the same molecule, the remaining activity at 10 µM [4] was 85%, the IC50 at 48 h [5, 17] was over 25 µM and the IC50 at 48 h [5, 18] was over 25 µM. The remaining activity at 1 µM [6] was 94%, the remaining activity at 10 µM [6] was 68% and the remaining activity at 1 µM [7] was 75%. For the same molecule, the remaining activity at 10 µM [7] was 35%, the remaining activity at 1 µM [8] was 85% and the remaining activity at 10 µM [8] was 81%. It also gave an IC50 at 48 h [9] of over 25 µM, a remaining activity at 1 µM [10] of 86% and a remaining activity at 10 µM [10] of 72%. It also gave a remaining activity at 1 µM [11] of 98%, a remaining activity at 10 µM [11] of 83% and an IC50 at 48 h [12] of 10 µM. It also gave an IC50 at 48 h [13] of over 25 µM, an IC50 at 48 h [14] of over 25 µM and a remaining activity at 1 µM [16] of at least 100%. For the same molecule, the remaining activity at 10 µM [16] was 92%.
